# Measured values reported in patent publication US5338752A, “Substituted 2-imidazolone derivatives, their preparation and pharmaceutical compositions” (SK&F Laboratories Ltd., priority 1990, dated 1994).
# How the values were obtained:
# [1] = system: washed human platelets; test: Aggregation of washed human platelets (stimulus 1 μM U46619); format: cell-based; details: Platelet; aspirin-treated washed human platelets; compound added 2 min before 1 μM U46619; assessed 4 min after stimulus; 37° C.
# Experimental: METHOD FOR MEASUREMENT OF AGGREGATION OF WASHED HUMAN PLATELETS
# Platelets were prepared from freshly drawn human blood. Blood was collected into acid citrate anticoagulant, centrifuged (5 min at 500 g), and the upper layer of platelet-rich plasma was removed. This platelet-rich plasma was incubated with aspirin (100 μM) for 10 min at 37° C. and then centrifuged (15 min at 200 g). The platelet pellet was resuspended (at approx. 1.5×10^8 cells/ml) in medium containing NaCl (145 mM), KCl (5 mM), MgCl2 (1 mM), CaCl2 (0.2 mM), Hepes (10 mM, ph 7.4 at 37° C.), glucose (10 mM), apyrase (10 μg/ml). Aggregation was monitored (as a change in optical density) at 37° C. in a 4 channel aggregometer (PAP-4 from Biodata Corp.). Fibrinogen (1 mg/ml) and CaCl2 (1 mM) were added to aliquots of platelets that were continuously stirred. The test compound (or 0.1% DMSO vehicle) was added 2 min before the aggregatory stimulus (1 μM U46619). The extent of aggregation was assessed 4 min after addition of the stimulus, and was calculated as % of the control response in the absence of test compound. Dose-response curves were constructed for measurement of IC50 values for each compound.
# [2] = molecular target: T1, [^3 H]iloprost binding to human platelet membranes (Homo sapiens, UniProt P43119); test: Inhibition of [^3 H]iloprost binding to human platelet membranes; details: [^3 H]iloprost 10 nM; pH 7.4; 30 min at 37° C.; calculated from IC50 for displacement
# T1 construct: Membranes were prepared from outdated platelet-rich plasma concentrates obtained from the Blood Transfusion Service; from tissue; host or cells: human platelets (outdated platelet-rich plasma concentrates from the Blood Transfusion Service)
# T1 sequence (P43119 whole entry, the tested form may be a part): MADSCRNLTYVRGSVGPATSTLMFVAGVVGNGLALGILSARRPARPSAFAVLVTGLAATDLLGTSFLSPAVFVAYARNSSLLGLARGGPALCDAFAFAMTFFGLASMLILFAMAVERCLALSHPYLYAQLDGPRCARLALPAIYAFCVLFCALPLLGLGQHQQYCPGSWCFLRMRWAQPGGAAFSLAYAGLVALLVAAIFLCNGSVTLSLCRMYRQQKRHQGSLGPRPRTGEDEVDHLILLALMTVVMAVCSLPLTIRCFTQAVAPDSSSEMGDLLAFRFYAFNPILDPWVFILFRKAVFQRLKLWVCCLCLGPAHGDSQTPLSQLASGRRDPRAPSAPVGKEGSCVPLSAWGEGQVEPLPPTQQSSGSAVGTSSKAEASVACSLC
# Experimental: METHOD FOR MEASUREMENT OF KI FOR INHIBITION OF [^3 H]ILOPROST BINDING TO HUMAN PLATELET MEMBRANES
# Membranes were prepared from outdated platelet-rich plasma concentrates obtained from the Blood Transfusion Service. The platelets were homogenised in buffer containing Tris-Cl (5 mM, pH 7.4 at 20° C.) and EDTA (0.25 mM), and then centrifuged (10 min at 26,000 g). The membrane pellet was washed twice by homogenisation in buffer containing Tris-Cl (50 mM, pH 7.4 at 20° C.) and EDTA (0.25 mM), followed by centrifugation. For measurement of [^3 H]iloprost binding, membranes (0.4-0.8 mg) were incubated in the presence of Tris-Cl (50 mM, pH 7.4 at 20° C.), MgCl2 (4 mM), EDTA (40 μM), […] (10 nM), DMSO (1.85%), and varying concentrations of the test compounds. For determination of non-specific binding, 20 μM iloprost was included. The tubes (triplicates for each condition) were set up on ice, and then incubated for 30 min at 37° C. The incubations were terminated by rapid filtration on Whatman GF/B filters using a Brandel Harvester. The filters were washed and then counted for radioactivity. The Ki of the test compounds for inhibition of binding of [^3 H] iloprost to human platelet membranes was calculated from the IC50 for displacement of [^3 H]iloprost binding.
SMILES,IC50 [1] [µM],Ki [2] [µM]
"O=c1n(CCCCCCCS(=O)(=O)O)c(-c2ccccc2)c(-c2ccccc2)n1-c1ccccc1 [Example 1, Sodium 7(3,4,5-triphenyl-2-oxo-2,3-dihydroimidazol-1-yl)-heptanesulphonate]",0.25,8
"CCOP(=O)(CCCCCCCn1c(-c2ccccc2)c(-c2ccccc2)n(-c2ccccc2)c1=O)OCC [Example 2, Diethyl 7-(3,4,5-triphenyl-2-oxo-2,3-dihydroimidazol-1-yl)heptanephosphonate]",5.5,30
"O=c1n(CCCCCCCP(=O)(O)O)c(-c2ccccc2)c(-c2ccccc2)n1-c1ccccc1 [Example 3, 7-(3,4,5-Triphenyl-2-oxo-2,3-dihydroimidazol-1-yl)-heptanephosphonic acid]",43,1.29
"CCOP(C)(=O)CCCCCCCn1c(-c2ccccc2)c(-c2ccccc2)n(-c2ccccc2)c1=O (centres unmarked) [Example 4, Ethyl 7-(3,4,5-triphenyl-2-oxo-2,3-dihydroimidazol-1-yl)methylphosphinate]",21,19
